Reference: ChEMBL document CHEMBL1201862, “PubChem BioAssay data set” (2004)
Activity calls are given as the source filed them.

Key:
[1] = target: T1, Polyadenylate-binding protein 1 (Homo sapiens, UniProt P11940); experiment: PABP1 MLLE–PAM2 binding inhibitor potency, dose response, biochemical, fluorescence polarization, FITC-PAM2 peptide (AID 602259); format: functional; conditions: read-out: IC50_Mean
Caspase-7 = Caspase-7 (Homo sapiens, UniProt P55210); experiment: procaspase-7 activators, dose response, counter-screen for procaspase-3 activator project, biochemical, absorbance (AID 489013)
Caspase-7, sequence (P55210 24-198 limits assumed): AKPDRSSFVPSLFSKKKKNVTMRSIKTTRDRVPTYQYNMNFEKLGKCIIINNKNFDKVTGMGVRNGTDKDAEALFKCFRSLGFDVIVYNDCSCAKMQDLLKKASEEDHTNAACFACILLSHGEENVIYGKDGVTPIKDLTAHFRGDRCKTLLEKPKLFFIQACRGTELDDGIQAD
Caspase-7, sequence (P55210 207-303 limits assumed): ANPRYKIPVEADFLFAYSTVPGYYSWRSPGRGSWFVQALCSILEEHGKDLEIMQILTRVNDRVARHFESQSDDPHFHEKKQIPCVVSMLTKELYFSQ

[2] = target: T1, Polyadenylate-binding protein 1; experiment: PABP1 MLLE–PAM2 interaction inhibitors, dose response, miRNA deadenylation inhibitor project, biochemical, fluorescence polarization, Cy5-PAM2 peptide, secondary (AID 602260); format: functional; conditions: read-out: IC50_Mean
cells = format: functional
Caspase-3 = target: T2, Caspase-3 (Homo sapiens, UniProt P42574); experiment: procaspase-3 activators, dose response, biochemical, absorbance (AID 489014)
T2 sequence (P42574 whole entry): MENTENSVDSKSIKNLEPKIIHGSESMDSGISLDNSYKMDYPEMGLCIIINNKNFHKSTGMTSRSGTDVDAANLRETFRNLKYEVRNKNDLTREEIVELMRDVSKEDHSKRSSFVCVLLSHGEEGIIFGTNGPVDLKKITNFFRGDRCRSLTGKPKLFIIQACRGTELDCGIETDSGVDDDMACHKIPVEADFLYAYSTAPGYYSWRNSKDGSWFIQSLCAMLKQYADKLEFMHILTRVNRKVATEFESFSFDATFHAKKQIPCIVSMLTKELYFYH

Phosphomannomutase 2 = Phosphomannomutase 2 (Homo sapiens, UniProt O15305); experiment: Counter screen SAR assay for PMM2 inhibitors via a fluorescence intensity assay. [Related pubchem assays (depositor defined):AID1545, AID1574]
Phosphomannomutase 2, sequence (O15305 whole entry): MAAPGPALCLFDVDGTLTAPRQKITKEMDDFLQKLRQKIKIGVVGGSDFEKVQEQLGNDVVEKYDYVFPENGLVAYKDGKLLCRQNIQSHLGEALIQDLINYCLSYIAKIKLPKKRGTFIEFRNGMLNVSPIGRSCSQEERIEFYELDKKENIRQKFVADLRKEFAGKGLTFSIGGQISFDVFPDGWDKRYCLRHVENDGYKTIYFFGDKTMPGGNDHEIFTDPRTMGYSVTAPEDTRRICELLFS

[3] = target: Phosphoethanolamine/phosphocholine phosphatase (Homo sapiens, UniProt Q8TCT1); experiment: SAR assay for compounds that inhibit PHOSPHO1. [Related pubchem assays (depositor defined):AID1545, AID1565, AID1574]
Phosphoethanolamine/phosphocholine phosphatase, sequence (Q8TCT1 whole entry): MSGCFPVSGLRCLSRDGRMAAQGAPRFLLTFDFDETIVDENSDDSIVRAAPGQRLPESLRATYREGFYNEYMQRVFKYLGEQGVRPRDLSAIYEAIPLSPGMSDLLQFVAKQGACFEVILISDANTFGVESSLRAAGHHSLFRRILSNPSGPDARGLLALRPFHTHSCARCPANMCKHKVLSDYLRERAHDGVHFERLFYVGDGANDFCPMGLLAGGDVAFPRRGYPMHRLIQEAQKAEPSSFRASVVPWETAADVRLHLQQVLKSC

[4] = target: T3, Mannose-6-phosphate isomerase (Homo sapiens, UniProt P34949); experiment: PMI enzyme inhibitors, confirmation, biochemical, fluorescence intensity (AID 1535)
T3 sequence (P34949 whole entry): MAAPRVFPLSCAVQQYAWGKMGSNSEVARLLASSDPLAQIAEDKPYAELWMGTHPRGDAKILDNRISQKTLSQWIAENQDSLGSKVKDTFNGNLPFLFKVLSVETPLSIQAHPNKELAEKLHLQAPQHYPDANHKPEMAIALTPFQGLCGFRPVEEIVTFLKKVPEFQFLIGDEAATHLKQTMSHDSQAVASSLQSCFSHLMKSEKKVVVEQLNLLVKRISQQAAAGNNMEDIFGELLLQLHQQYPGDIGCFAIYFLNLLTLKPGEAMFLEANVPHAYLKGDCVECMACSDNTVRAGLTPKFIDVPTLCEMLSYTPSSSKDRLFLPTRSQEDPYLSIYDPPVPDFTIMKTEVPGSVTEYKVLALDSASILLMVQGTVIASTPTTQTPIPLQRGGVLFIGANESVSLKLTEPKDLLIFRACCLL

Aspartyl aminopeptidase = Aspartyl aminopeptidase (Plasmodium falciparum 3D7, UniProt Q8I2J3)
Aspartyl aminopeptidase, sequence (Q8I2J3 whole entry): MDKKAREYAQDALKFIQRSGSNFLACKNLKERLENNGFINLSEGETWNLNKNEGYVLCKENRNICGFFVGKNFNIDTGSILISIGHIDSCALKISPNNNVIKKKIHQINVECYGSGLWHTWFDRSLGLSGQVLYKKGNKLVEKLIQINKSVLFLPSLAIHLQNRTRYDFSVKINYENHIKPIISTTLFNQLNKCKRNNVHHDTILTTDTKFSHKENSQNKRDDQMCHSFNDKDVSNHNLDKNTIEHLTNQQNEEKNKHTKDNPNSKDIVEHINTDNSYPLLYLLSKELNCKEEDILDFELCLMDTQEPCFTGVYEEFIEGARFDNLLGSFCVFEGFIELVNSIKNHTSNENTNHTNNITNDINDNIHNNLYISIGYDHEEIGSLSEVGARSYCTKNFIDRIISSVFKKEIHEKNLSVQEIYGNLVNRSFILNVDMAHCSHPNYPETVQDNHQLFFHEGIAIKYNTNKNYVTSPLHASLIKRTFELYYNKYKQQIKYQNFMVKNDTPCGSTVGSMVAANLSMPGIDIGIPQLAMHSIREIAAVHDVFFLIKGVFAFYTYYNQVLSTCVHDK

Procathepsin L = Procathepsin L (Homo sapiens, UniProt P07711)
Procathepsin L, sequence (P07711 whole entry): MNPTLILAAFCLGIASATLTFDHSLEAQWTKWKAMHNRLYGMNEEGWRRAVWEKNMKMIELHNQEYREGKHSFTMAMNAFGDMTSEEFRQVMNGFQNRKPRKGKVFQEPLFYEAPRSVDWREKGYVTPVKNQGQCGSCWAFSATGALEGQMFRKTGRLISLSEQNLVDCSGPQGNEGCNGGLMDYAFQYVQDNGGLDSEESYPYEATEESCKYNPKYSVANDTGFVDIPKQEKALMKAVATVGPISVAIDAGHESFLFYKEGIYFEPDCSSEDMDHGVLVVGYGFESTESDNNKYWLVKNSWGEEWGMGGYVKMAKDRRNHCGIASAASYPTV

[5] = target: DNA dC->dU-editing enzyme APOBEC-3A (Homo sapiens, UniProt P31941); experiment: APOBEC3A DNA deaminase inhibitors, dose response, biochemical (AID 504722); format: functional
DNA dC->dU-editing enzyme APOBEC-3A, sequence (P31941 whole entry): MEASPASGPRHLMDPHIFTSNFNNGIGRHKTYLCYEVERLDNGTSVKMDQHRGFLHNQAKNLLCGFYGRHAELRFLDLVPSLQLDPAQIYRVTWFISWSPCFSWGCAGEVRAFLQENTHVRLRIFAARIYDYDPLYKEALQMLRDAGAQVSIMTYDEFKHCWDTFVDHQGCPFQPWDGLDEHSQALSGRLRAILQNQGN

[6] = target: DNA dC->dU-editing enzyme APOBEC-3G (Homo sapiens, UniProt Q9HC16); experiment: Dose Response confirmation of small molecule APOBEC3G DNA Deaminase Inhibitors via a fluorescence-based single-stranded DNA deaminase assay. [Related pubchem assays (depositor defined):AID493012, AID493028]; format: functional
DNA dC->dU-editing enzyme APOBEC-3G, sequence (Q9HC16 whole entry): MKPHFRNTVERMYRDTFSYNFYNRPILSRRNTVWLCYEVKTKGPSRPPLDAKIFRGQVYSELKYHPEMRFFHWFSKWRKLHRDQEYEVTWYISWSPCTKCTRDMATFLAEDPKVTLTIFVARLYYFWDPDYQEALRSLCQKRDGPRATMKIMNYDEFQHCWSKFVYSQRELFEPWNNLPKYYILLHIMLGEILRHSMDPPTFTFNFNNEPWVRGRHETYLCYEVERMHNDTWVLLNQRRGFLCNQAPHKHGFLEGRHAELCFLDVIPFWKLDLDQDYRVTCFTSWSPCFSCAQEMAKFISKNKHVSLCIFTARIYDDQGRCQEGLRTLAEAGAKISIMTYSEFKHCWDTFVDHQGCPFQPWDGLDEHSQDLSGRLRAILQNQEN

[7] = target: T3, Mannose-6-phosphate isomerase; experiment: inhibitors of human PMI, primary screen, biochemical, fluorescence intensity, coupled assay (AID 1209)
[8] = target: T3, Mannose-6-phosphate isomerase; experiment: human PMI inhibitors, high substrate, primary screen, biochemical, fluorescence intensity, high mannose 6-phosphate (AID 1220)
HeLa = experiment: HeLa cell cytotoxicity, dose response, cytotoxicity control, 24 h, cherry-picked samples (AID 504726); format: functional, cell-based; conditions: Homo sapiens;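 note: potency for cytotoxicity as loss of luminescence signal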
[9] = target: T4, Tyrosine-protein phosphatase non-receptor type 7 (Homo sapiens, UniProt P35236); experiment: Dose Response confirmation of compounds that inhibit HePTP. [Related pubchem assays (depositor defined):AID1059, AID1661, AID2085]; format: functional
T4 sequence (P35236 whole entry): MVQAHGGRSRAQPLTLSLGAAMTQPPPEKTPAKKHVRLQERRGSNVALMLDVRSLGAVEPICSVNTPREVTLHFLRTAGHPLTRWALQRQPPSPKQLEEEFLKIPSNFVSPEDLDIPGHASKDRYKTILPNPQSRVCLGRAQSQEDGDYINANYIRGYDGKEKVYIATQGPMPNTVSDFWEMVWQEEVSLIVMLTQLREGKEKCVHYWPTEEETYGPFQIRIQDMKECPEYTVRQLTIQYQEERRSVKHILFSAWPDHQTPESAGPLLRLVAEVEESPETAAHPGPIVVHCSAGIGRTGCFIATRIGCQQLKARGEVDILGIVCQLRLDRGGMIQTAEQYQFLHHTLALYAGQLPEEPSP

[10] = target: Dual specificity protein phosphatase 3 (Homo sapiens, UniProt P51452); experiment: Dose Response Confirmation of compounds that inhibit VHR1 in Fluorescent Assay. [Related pubchem assays (depositor defined):AID1661, AID1878]; format: functional
Dual specificity protein phosphatase 3, sequence (P51452 whole entry): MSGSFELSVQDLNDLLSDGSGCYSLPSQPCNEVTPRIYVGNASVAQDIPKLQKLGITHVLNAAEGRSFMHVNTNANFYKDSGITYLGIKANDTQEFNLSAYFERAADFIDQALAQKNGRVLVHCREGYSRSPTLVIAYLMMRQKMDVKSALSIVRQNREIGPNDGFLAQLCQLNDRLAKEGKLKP

[11] = target: Lysosomal acid glucosylceramidase (Homo sapiens, UniProt P04062); experiment: Dose response cell-based high throughput screening assay to identify enhancers of beta-glucosidase activity. [Related pubchem assays: 784 ]; format: functional
Lysosomal acid glucosylceramidase, sequence (P04062 whole entry): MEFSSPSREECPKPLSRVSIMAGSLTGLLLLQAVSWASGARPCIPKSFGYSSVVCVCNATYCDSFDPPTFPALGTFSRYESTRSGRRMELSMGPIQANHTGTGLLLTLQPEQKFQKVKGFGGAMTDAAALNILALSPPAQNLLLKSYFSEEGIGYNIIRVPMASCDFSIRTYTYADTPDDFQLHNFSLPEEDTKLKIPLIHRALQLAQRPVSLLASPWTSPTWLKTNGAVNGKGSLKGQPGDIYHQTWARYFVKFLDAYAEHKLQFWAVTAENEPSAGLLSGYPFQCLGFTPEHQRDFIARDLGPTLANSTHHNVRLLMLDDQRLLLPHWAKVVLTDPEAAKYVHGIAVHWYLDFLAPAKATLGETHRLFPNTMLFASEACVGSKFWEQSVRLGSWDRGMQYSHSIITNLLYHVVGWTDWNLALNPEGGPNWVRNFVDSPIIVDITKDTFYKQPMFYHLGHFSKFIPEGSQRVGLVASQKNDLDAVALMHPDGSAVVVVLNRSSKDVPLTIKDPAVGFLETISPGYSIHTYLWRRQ

[12] = target: Kappa-type opioid receptor (Homo sapiens, UniProt P41145); experiment: SAR analysis of small molecule agonists of the kappa opioid receptor via a luminescent beta-arrestin assay - Set 2. [Related pubchem assays (depositor defined):AID1777, AID1785, AID1786, AID1966, AID2133, AID2136, AID2284, AID449737]; format: functional
Kappa-type opioid receptor, sequence (P41145 whole entry): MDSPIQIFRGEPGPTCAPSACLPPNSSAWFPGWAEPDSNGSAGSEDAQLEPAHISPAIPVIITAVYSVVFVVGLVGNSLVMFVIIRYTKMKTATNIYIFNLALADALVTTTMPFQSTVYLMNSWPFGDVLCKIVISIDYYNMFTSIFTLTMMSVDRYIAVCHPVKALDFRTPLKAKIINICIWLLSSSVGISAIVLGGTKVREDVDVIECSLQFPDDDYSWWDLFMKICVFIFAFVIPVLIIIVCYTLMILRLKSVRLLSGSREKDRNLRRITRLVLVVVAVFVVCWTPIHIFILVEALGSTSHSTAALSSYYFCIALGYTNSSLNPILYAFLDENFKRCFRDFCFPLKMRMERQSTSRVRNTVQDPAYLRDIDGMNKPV

Chaperone protein dnaK = Chaperone protein dnaK (Escherichia coli, UniProt C3TRK2); experiment: DnaK beta-domain binding affinity, SAR follow-up, orthogonal assay for DnaK modulator project, biophysical, isothermal titration calorimetry, full-length DnaK (AID 1495)
Chaperone protein dnaK, sequence (C3TRK2 whole entry): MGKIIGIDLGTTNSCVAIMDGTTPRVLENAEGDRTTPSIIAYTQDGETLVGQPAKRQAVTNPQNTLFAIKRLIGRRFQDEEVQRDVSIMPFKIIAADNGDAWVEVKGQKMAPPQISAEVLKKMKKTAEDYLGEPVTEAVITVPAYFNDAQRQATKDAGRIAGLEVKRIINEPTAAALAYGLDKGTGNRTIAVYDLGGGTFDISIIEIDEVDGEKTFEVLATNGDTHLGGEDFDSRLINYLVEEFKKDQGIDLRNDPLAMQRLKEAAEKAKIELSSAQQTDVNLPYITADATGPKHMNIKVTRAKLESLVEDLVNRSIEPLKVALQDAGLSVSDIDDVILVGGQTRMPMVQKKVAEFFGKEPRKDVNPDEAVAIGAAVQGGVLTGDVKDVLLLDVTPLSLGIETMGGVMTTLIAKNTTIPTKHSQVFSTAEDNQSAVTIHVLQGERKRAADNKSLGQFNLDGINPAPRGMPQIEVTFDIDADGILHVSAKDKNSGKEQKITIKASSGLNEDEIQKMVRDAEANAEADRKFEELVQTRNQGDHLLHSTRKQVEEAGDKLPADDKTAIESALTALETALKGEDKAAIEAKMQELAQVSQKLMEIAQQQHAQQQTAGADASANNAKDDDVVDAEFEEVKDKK

T1 sequence (P11940 whole entry): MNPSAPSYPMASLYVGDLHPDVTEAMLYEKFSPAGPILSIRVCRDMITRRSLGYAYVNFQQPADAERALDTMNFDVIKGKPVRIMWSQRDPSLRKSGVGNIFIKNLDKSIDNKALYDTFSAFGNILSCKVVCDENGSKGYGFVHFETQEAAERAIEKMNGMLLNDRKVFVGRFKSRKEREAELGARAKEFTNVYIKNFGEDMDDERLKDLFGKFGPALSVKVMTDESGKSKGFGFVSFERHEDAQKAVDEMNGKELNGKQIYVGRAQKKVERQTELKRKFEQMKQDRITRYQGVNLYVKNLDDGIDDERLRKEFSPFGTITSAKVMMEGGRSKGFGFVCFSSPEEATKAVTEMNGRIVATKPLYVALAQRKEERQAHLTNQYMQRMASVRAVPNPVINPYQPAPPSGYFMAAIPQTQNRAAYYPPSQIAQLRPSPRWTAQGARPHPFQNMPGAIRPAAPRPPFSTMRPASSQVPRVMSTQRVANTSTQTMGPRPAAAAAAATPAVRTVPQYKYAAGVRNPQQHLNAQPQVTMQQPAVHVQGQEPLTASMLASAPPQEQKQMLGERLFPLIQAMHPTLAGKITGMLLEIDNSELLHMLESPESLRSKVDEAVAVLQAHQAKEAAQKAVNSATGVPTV

Which IC50 [1] does the source give for `COc1ccc(C2=NC(=O)/C(=C\c3cc(OC)c(OC)c(OC)c3)O2)cc1` here?
Its IC50 is > 66 µM (inactive).

What about the EC50 (Caspase-7) of the same compound?
Its EC50 is > 85.2 µM (inactive).

And the IC50 [2]?
Its IC50 is > 66 µM (inactive).

And the IC50 (cells)?
Its IC50 is 1.18 µM (active).

And the EC50 (Caspase-3)?
The EC50 was 0.42 µM (active).

Which results are given for `O=C1c2ccccc2C(=O)c2c1ccc1c(=O)n(-c3ccc(Cl)cc3)sc21`?
IC50 (Phosphomannomutase 2): > 100 µM (inactive); IC50 [3]: 0.82 µM (active); IC50 [4]: > 50 µM (inactive)

For `Cc1cc(C)n2c(S)nnc2n1`, which IC50 (Aspartyl aminopeptidase) is on record?
Its IC50 is 6.41 µM (active).

What about the IC50 (Procathepsin L) of the same compound?
Its IC50 is > 59.6 µM (not active).

And the IC50 [5]?
Its IC50 is > 100 µM (inactive).

And the IC50 [6]?
Its IC50 is 17 µM (active).

What about the IC50 [7] of the same compound?
The IC50 was 43.2 µM (active).

What about the IC50 [8] of the same compound?
The IC50 was > 50 µM (not active).

For `Cc1ccc(N(C)C(=O)C2CCCN2S(=O)(=O)c2ccc3c(c2)n(C)c(=O)c(=O)n3C)cc1` (stereo not given), which AC50 (HeLa) is on record?
Its AC50 is 267 µM (active).

For `Cc1ccc2nc(-c3ccncc3)cc(C(=O)Nc3ccc(OC(F)F)cc3)c2c1`, which IC50 [9] is on record?
The IC50 was 4.12 µM (active).

What about the IC50 [10] of the same compound?
The IC50 was 5.69 µM (active).

For `COc1cccc(-c2cc(C(F)(F)F)nc(NCc3ccco3)n2)c1`, which EC50 [11] is on record?
Its EC50 is > 50 µM (not active).

Which EC50 [12] does the source give for `O=C(CN(Cc1cccs1)C(=O)c1cccnc1)NC1CCCCC1` here?
The EC50 was > 20 µM (inactive).

Which Kd (Chaperone protein dnaK) does the source give for `CC(Cc1ccc(F)cc1)NC(=O)c1cccs1` (stereo not given) here?
The Kd was 28 µM (inactive).
